Source: patent US10294202B2, “Pyrrolidinones as herbicides” (FMC Corporation, priority 2013, dated 2019)

Assays:
foxtail, green = experiment: Test C pre-/postemergence herbicide test; type: in vivo, Setaria viridis
From the text: Seeds of plant species selected from blackgrass (Alopecurus myosuroides), ryegrass, Italian (Italian ryegrass, Lolium multiflorum), wheat (winter wheat, Triticum aestivum), galium (catchweed bedstraw, Galium aparine), corn (Zea mays), crabgrass, large (large crabgrass, Digitaria sanguinalis), foxtail, giant (giant foxtail, Setaria faberii), johnsongrass (Sorghum halepense), lambsquarters (Chenopodium album), morningglory (Ipomoea coccinea), nutsedge, yellow (yellow nutsedge, Cyperus esculentus), pigweed (Amaranthus retroflexus), ragweed (common ragweed, Ambrosia elatior), soybean (Glycine max), barnyardgrass (Echinochloa crus-galli), oilseed rape (Brassica napus), waterhemp (common waterhemp, Amaranthus rudis), kochia (Kochia scoparia), oat, wild (wild oat, Avena fatua), surinam grass (Brachiaria decumbens), foxtail, green (green foxtail, Setaria viridis), goosegrass (Eleusine indica), bromegrass, downy (downy bromegrass, Bromus tectorum), nightshade (eastern black nightshade, Solanum ptycanthum), cocklebur (common cocklebur, Xanthium strumarium), cupgrass, woolly (woolly cupgrass, Eriochloa villosa), bermudagrass (Cynodon dactylon), sunflower, (common oilseed sunflower, Helianthus annuus), Russian thistle (Salsola kali) and velvetleaf (Abutilon theophrasti) were planted into a blend of loam soil and sand and treated preemergence with test chemicals formulated in a non-phytotoxic solvent mixture which included a surfactant. At the same time, plants selected from these crop and weed species and also barley (winter barley, Hordeum vulgare), […]), chickweed (common chickweed, Stellaria media), deadnettle (henbit deadnettle, Lamium amplexicaule), and canarygrass (littleseed canarygrass, Phalaris minor) were planted in pots containing Redi-Earth® planting medium (Scotts Company, 14111 Scottslawn Road, Marysville, Ohio 43041) comprising spaghnum peat moss, vermiculite, wetting agent and starter nutrients and treated with postemergence applications of test chemicals formulated in the same manner. Plants ranged in height from 2 to 18 cm (1- to 4-leaf stage) for postemergence treatments. Treated plants and controls were maintained in a greenhouse for 13 to 15 days, after which time all species were compared to controls and visually evaluated. Plant response ratings, summarized in Table C, are based on a scale of 0 to 100 where 0 is no effect and 100 is complete control. A dash (-) response means no test result.

field violet = experiment: Test D pre-/postemergence herbicide test; type: in vivo, Viola arvensis; settings: for Plant response rating: Field Violet, scale 0 to 100; for Plant response rating, Field Violet: scale 0 to 100 (0 no effect, 100 complete control)
From the text: (§1) Seeds of plant species selected from bluegrass (annual bluegrass, Poa annua), blackgrass (Alopecurus myosuroides), canarygrass (littleseed canarygrass, Phalaris minor), chickweed (common chickweed, Stellaria media), galium (catchweed bedstraw, Galium aparine), bromegrass, downy (downy bromegrass, Bromus tectorum), field poppy (Papaver rhoeas), field violet (Viola arvensis), foxtail, green (green foxtail, Setaria viridis), deadnettle (henbit deadnettle, Lamium amplexicaule), ryegrass, Italian (Italian ryegrass, Lolium multiflorum), kochia (Kochia scoparia), lambsquarters (Chenopodium album), oilseed rape (Brassica napus), pigweed (Amaranthus retroflexus), chamomile (scentless chamomile, Matricaria inodora), Russian thistle (Salsola kali), speedwell (bird's-eye speedwell, Veronica persica), barley, spring (spring barley, Hordeum vulgare), wheat, spring (spring wheat, Triticum aestivum), buckwheat, wild (wild buckwheat, Polygonum convolvulus), mustard, wild (wild mustard, Sinapis arvensis), oat, wild (wild oat, Avena fatua), radish, wild (wild radish, Raphanus raphanistrum), […]), barley, winter (winter barley, Hordeum vulgare), and wheat, winter (winter wheat, Triticum aestivum) were planted into a silt loam soil and treated preemergence with test chemicals formulated in a non-phytotoxic solvent mixture which included a surfactant. At the same time, these species were planted in pots containing Redi-Earth® planting medium (Scotts Company, 14111 Scottslawn Road, Marysville, Ohio 43041) comprising spaghnum peat moss, vermiculite, wetting agent and starter nutrients and treated with postemergence applications of the test chemicals formulated in the same manner. Plants ranged in height from 2 to 18 cm (1- to 4-leaf stage). Treated plants and controls were maintained in a controlled growth environment for 7 to 21 days after which time all species were compared to controls and visually evaluated. Plant response ratings, summarized in Table D, are based on a scale of 0 to 100 where 0 is no effect and 100 is complete control. A dash (-) response means no test result.

pigweed = experiment: Test D pre-/postemergence herbicide test; type: in vivo, Amaranthus retroflexus; settings: for Plant response rating: Postemergence, Pigweed, scale 0 to 100; for Plant response rating, Pigweed: Preemergence, scale 0 to 100 (0 no effect, 100 complete control)
From the text: as §1

[1] = Postemergence, 31 g ai/ha, scale 0 (no effect) to 100 (complete control)
[2] = Postemergence, 62 g ai/ha, scale 0 to 100 (0 no effect, 100 complete control)
[3] = Postemergence, 125 g ai/ha, scale 0 to 100 (0 no effect, 100 complete control)
[4] = Preemergence, 62 g ai/ha, scale 0 to 100
[5] = Preemergence, 125 g ai/ha, scale 0 to 100 (0 no effect, 100 complete control)

Structure (SMILES)	Plant response rating, Foxtail, Green (foxtail, green; [1])	Plant response rating, Foxtail, Green (foxtail, green; [2])	Plant response rating, Foxtail, Green (foxtail, green; [3])	Plant response rating (field violet; Postemergence, 31 g ai/ha)	Plant response rating (field violet; Postemergence, 62 g ai/ha)	Plant response rating (field violet; Postemergence, 125 g ai/ha)	Plant response rating, Field Violet (field violet; Preemergence, 62 g ai/ha)	Plant response rating, Field Violet (field violet; Preemergence, 31 g ai/ha)	Plant response rating (field violet; Preemergence, 125 g ai/ha)	Plant response rating (pigweed; 31 g ai/ha)	Plant response rating (pigweed; 62 g ai/ha)	Plant response rating (pigweed; 125 g ai/ha)	Plant response rating, Pigweed (pigweed; 62 g ai/ha)	Plant response rating, Pigweed (pigweed; 125 g ai/ha)	Plant response rating, Pigweed (pigweed; 31 g ai/ha)	Plant response rating, Foxtail, Green (foxtail, green; [4])	Plant response rating, Foxtail, Green (foxtail, green; [5])	Plant response rating (field violet; Postemergence, 250 g ai/ha)	Plant response rating (field violet; Preemergence, 250 g ai/ha)	Plant response rating (pigweed; 250 g ai/ha)	other results
O=C1NCC(c2cc(F)c(F)cc2F)C1C(=O)Nc1cccc(F)c1F (centres unmarked) [Compound 50]	0	0	0	0	0	0	0	0	0	0	0	10	25	5	10						Plant response rating, Foxtail, Green (foxtail, green; Postemergence, 250 g ai/ha, scale 0 to 100 (0 no effect, 100 complete control)): 30; Plant response rating (field violet; Postemergence, 16 g ai/ha): 0; Plant response rating, Field Violet (field violet; Preemergence, 16 g ai/ha): 0; Plant response rating (pigweed; 16 g ai/ha): 5; Plant response rating, Pigweed (pigweed; 16 g ai/ha): 10
O=C1NCC(c2ccc(F)c(Cl)c2)C1C(=O)Nc1ccccc1F (centres unmarked) [Compound 60]	20	35	45													90	90				Foxtail, Green plant response rating (foxtail, green; Preemergence, 31 g ai/ha, scale 0 to 100 (0 no effect, 100 complete control)): 90
O=C1NCC(c2cccc(OC(F)(F)F)c2)C1C(=O)Nc1ccccc1F (centres unmarked) [Compound 69]																90	95				Foxtail, Green plant response rating (foxtail, green; Preemergence, 31 g ai/ha, scale 0 to 100, 0 is no effect and 100 is complete control): 90; Plant response rating (scale of 0 to 100), Foxtail, Green (foxtail, green; Preemergence, 250 g ai/ha): 95
O=C1NCC(c2ccc(C(F)(F)F)cc2)C1C(=O)Nc1cccc(F)c1F (centres unmarked) [Compound 80, N-(2,3-difluorophenyl)-2-oxo-4-[4-(trifluoromethyl)phenyl]-3-pyrrolidinecarboxamide]				15	20	15	20	0	20	40	70	70	10	20	5			25	25	75	Plant response rating, Pigweed (pigweed; 250 g ai/ha): 45
O=C1NCC(c2ccc(C(F)(F)F)cc2)C1C(=O)Nc1ccccc1F (centres unmarked) [Compound 231]				20	20	10	0	0		20	35	35	50	60	50			25	0	45	Plant response rating, Field Violet (field violet; Preemergence, 125 g ai/ha): 10; Plant response rating, Pigweed (pigweed; 250 g ai/ha): 80
